The text below walks through data of ChEMBL document CHEMBL5108032, “Innovation Experiences from Africa-Led Drug Discovery at the Holistic Drug Discovery and Development (H3D) Centre” (ACS Med Chem Lett, 2022).

≈ marks a conversion by molar mass, not a printed value.

In this experiment the test system is Mycobacterium tuberculosis. As to the kind of experiment: Antimycobacterial activity against Mycobacterium tuberculosis H37Rv assessed as inhibition of visible growth incubated for 7 days. The class given is functional. The following applies: 168 h, time 7 day.

`Cc1nnc(-c2noc3c(F)c4c(cc23)CC2(C(=O)NC(=O)NC2=O)[C@H]2[C@H](C)O[C@H](C)CN42)o1`: the MIC turned out to be 1.7 µM (≈ 0.8 µg/mL).
